pIC50: −log10 of the molar value.
System: ovarian cancer cell line A2780
Assay: MTT cell viable assay (cytotoxicity and anti-proliferation)
Format: cell-based
Details: Homo sapiens
Method: A biological assay was performed to study the potency of ORM-analogs by observing their pharmaceutical effects on living tissue (in vitro) and the effects of these analogs of unknown potency were compared to the effects of the standard (ormeloxifene). An MTT cell viable assay was first conducted to measure the cytotoxicity and anti-proliferation activity of synthesized analogs (Table 2 and FIG. 2).

SMILES: COc1ccc2c(c1)OC(C)(C)C(c1ccccc1)C2c1ccc(OCCN2CCCC2)cc1 (stereo not shown) [Ormeloxifene, reference compound]
- pIC50: 4.76

Source: patent US20240208950A1, “COMPOSITIONS AND METHODS FOR TREATMENT OF CERVICAL AND OVARIAN CANCER” (SOUTH DAKOTA BOARD OF REGENTS, priority 2021, published 2024)
